Source: publication PMC13600255 (Journal of the American Chemical Society, 2025)
Entries after “also recorded” stand apart in the source; their conditions may differ.

Columns and labels:
SERT [1] = target: SERT (Mus musculus, UniProt Q60857); assay: SERTlight two-photon imaging of SERT function in acute mouse brain slices; assay type: cell-based; settings: 2 μM for 30 minutes, SERTlight 10 μM; SNpr, DS, SSp2/3
rat SERT (rSERT) = rat SERT (rSERT) (Rattus norvegicus, UniProt P31652); settings: cited from earlier work
mouse VMAT2 (mVMAT2) = mouse VMAT2 (mVMAT2) (Mus musculus, UniProt Q8BRU6); assay: FFN200 two-photon imaging of VMAT2 function in acute mouse brain slices; assay type: cell-based; settings: 2 μM for 30 minutes, FFN200 10 μM, dorsal striatum
VMAT2 = VMAT2 (Rattus norvegicus, UniProt Q01827); assay: [3H]5-HT release from rat brain synaptic vesicles via VMAT2; assay type: biochemical
MAO A = target: T1, MAO A (Homo sapiens, UniProt P21397); assay: MAO A activity; assay type: biochemical; settings: Figure S16
T1 sequence (P21397 1-527): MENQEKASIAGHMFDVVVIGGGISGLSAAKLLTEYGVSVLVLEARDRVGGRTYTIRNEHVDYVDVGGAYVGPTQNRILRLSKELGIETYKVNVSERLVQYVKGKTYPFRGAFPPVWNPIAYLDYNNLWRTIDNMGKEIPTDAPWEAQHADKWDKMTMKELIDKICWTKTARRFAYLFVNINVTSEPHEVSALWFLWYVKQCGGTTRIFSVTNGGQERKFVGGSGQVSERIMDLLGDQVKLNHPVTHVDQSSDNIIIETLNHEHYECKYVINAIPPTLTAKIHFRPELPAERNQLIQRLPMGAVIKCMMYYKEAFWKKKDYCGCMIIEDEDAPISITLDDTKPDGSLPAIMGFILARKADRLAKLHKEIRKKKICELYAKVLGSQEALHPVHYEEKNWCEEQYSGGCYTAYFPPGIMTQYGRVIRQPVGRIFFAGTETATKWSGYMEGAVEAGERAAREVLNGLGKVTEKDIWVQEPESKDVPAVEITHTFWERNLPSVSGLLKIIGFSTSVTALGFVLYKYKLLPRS

SERT [2] = target: SERT (Rattus norvegicus, UniProt P31652); assay: [3H]5-HT release from rat brain synaptosomes via SERT; assay type: biochemical; settings: rat brain synaptosomes
[3] = tested on: other uptake 2 transporters (OCT1, OCT3, PMAT); assay: Fluorescent substrate uptake inhibition at the other uptake 2 transporters; assay type: cell-based
humans = settings: after a single treatment; cited from earlier work
hVMAT2 = hVMAT2 (Homo sapiens, UniProt Q05940); assay: FFN206 fluorescent substrate uptake inhibition in hVMAT2-HEK cells; assay type: cell-based; settings: ratio of IC50 values, cell-based fluorometry
hVMAT2, sequence (Q05940 whole entry): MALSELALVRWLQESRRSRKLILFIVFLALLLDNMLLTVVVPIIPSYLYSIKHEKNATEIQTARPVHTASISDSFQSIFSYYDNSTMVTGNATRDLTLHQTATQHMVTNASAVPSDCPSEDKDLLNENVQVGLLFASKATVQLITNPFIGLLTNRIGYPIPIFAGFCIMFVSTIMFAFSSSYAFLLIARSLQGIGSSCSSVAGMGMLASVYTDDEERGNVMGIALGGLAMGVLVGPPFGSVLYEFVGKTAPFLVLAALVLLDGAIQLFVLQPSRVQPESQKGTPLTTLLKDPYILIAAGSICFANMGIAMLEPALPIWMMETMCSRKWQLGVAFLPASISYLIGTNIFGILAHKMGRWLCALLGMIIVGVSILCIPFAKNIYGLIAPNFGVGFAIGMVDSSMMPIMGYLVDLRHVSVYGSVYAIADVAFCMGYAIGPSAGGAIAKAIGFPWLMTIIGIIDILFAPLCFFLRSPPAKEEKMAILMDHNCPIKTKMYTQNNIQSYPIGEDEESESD

SERT (Rattus norvegicus, UniProt P31652), sequence (P31652 whole entry): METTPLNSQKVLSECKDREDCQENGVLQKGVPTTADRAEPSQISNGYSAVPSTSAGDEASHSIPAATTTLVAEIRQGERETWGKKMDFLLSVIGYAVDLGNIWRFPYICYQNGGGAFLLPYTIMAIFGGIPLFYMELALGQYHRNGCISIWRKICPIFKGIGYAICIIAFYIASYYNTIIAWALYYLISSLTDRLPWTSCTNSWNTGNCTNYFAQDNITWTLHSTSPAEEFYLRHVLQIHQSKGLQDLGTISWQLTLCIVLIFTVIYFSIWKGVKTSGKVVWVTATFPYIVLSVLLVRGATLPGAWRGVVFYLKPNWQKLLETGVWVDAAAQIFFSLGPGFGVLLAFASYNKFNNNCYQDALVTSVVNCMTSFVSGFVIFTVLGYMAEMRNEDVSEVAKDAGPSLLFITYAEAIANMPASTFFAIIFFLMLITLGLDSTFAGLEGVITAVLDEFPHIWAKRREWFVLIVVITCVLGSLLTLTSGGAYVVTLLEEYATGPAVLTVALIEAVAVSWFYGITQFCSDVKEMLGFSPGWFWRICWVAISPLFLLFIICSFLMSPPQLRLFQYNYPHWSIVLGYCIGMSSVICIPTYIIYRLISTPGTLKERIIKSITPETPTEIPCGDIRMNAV
mouse VMAT2 (mVMAT2), sequence (Q8BRU6 whole entry): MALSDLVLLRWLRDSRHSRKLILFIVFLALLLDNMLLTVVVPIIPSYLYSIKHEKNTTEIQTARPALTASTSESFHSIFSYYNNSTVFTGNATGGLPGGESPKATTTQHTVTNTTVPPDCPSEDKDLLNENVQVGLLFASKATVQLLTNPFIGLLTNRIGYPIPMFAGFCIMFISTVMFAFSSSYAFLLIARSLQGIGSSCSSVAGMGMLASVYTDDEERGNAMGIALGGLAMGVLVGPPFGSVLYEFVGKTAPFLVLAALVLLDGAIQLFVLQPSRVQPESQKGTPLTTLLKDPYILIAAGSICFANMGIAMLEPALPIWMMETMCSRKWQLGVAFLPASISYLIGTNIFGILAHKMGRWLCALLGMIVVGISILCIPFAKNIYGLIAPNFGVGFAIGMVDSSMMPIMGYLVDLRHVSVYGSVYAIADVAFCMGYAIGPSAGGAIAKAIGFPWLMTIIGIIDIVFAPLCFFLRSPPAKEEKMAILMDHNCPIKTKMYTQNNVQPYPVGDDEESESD
SERT (Mus musculus, UniProt Q60857), sequence (Q60857 whole entry): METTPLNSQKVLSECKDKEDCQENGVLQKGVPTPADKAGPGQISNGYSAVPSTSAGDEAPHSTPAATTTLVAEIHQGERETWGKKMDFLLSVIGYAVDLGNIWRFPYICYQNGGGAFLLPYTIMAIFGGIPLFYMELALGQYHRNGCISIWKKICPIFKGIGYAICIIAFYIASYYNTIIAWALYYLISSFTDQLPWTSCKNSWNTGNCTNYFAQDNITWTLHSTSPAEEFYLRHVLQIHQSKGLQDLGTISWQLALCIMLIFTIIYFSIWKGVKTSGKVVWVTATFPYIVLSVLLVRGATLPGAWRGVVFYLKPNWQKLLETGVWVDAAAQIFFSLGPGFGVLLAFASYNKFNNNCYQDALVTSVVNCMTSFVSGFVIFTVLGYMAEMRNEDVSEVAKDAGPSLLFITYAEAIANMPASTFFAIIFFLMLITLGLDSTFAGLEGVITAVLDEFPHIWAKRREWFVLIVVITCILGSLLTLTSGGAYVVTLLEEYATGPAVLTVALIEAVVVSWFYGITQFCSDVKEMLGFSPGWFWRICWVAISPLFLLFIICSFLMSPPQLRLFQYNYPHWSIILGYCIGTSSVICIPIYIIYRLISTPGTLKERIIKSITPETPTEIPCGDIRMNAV
VMAT2, sequence (Q01827 whole entry): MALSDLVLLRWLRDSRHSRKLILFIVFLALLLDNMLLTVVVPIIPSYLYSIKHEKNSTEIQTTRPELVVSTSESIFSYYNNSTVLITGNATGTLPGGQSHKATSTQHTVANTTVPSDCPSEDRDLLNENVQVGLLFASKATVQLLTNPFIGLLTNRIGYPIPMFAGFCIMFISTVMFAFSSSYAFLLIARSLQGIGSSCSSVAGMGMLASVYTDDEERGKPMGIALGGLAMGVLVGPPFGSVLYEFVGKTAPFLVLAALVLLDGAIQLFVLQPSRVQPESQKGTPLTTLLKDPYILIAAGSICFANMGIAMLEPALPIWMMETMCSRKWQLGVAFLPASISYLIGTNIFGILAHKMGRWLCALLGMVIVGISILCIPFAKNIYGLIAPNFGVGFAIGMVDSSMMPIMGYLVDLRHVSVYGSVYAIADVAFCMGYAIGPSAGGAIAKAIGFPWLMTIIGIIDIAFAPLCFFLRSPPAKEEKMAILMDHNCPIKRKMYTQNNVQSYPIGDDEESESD
rat SERT (rSERT), sequence (P31652 whole entry): as the sequence (P31652 whole entry) above

ibogaine
Effect on SERTlight labeling of 5-HT axons (SERT [1]): did not alter probe uptake; also recorded: had no effect on SERTlight labeling | Ratio of binding to uptake inhibitory constants at SERT (rat SERT (rSERT)): ~ 1 | Effect on FFN200 uptake / punctate labeling (mouse VMAT2 (mVMAT2)): strong inhibitory effects; also recorded: completely inhibited FFN200 uptake | Concentration at which [3H]5-HT release exceeds Emax of 30% (VMAT2; rat brain synaptic vesicles): > 10 µM | [3H]5-HT Release % Emax via VMAT2 (VMAT2; rat brain vesicular fraction, 5-HT control set as Emax = 100%): < 30% | Activity at MAO A (MAO A): no activity | [3H]5-HT release from preloaded synaptosomes (qualitative) (SERT [2]): No [^3H]5-HT release was observed | [3H]5-HT Release % Emax via SERT (SERT [2]; n = 3): < 30% | [3H]5-HT Release EC50 ± SD via SERT (SERT [2]; n = 3, active releaser: EC50 < 10 μM and Emax > 30%): inactive | Inhibition at the other uptake 2 transporters examined [3]: no inhibition below 10 μM | Remission (humans): 80% | Selectivity hVMAT2 over hSERT (hVMAT2): seven-fold more potent at VMAT2
